The source of these data is PMC8583417, “Evaluation of the Antimicrobial Efficacy of N-Acetyl-L-Cysteine, Rhamnolipids, and Usnic Acid—Novel Approaches to Fight Food-Borne Pathogens” (International Journal of Molecular Sciences, 2021).

The subject of test [1] is S. Infantis S59. The test can be described thus: MIC for metabolic activity of preformed biofilm (MTT reduction assay). The following applies: for MICMPB80: ≥80% inhibition, 20 h with substance. Type of test: cell-based, Salmonella enterica Infantis. As to the method:
(§1) Ten concentrations of NAC, RLs, and UA were tested to determine the minimum inhibitory concentration for planktonic growth, and subsequently, the six highest concentrations were applied on preformed biofilms to evaluate the biofilm eradication ability of the compounds. MIC was defined as the lowest substance concentration able to inhibit at least 80% of microbial growth (MICPC80 for planktonic cells, MICBC80 for further growth of biofilm cells), inhibit 80% of metabolic activity (MICBM80 for biofilm metabolic activity, MICMPB80 for metabolic activity of preformed biofilm), prevent biofilm formation by at least 80% (MICBF80 for biofilm formation), or reduce a preformed biofilm by at least 80% (MICBR80 for biofilm reduction). The results of MICs are summarized in Table 1 (planktonic cells) and Table 2 (biofilm-associated cells).
(§2) The determination of MICs was performed according to Chlumsky et al.. Briefly, 96-well flat-bottomed microtiter plates were inoculated with 75 µL (for biofilm formation) or 100 µL (for preformed biofilm) of bacterial suspension (A625nm 0.08 to 0.1) in technical triplicates and were then carefully mixed with the dilution series of the test substances (24 h cultivation at 25 °C for S. Infantis, 37 °C for other strains) or were directly cultivated to preform biofilms (18 h). For a positive control of bacterial growth, the inoculum was mixed with a pure sterile medium. Furthermore, the sterile medium was included in the plate as a marker of potential microbial contamination. To evaluate planktonic cells growth (MICPC80) and further growth of biofilm cells (MICBC80), the optical density of the content of the microtiter plates was measured spectrophotometrically at 625 nm before and after 24 h (for biofilm formation) of cultivation or before and after additional 20 h incubation with the tested compound (for preformed biofilm). The difference of A625nm was considered as a measure of the ability of cells to grow in the presence of the tested substances. To evaluate the inhibition of biofilm formation (MICBF80) and reduction in preformed biofilms (MICBR80), biomass was quantified using crystal violet staining, and its metabolic activity (MICBM80 and MICMPB80) was estimated by using the MTT (thiazyl tetrazolium bromide, Sigma-Aldrich, USA) reduction assay, both measured spectrophotometrically at 595 nm.
(§3) All inhibitions were calculated using the formula of Chlumsky et al. below (Equation (1)):(1) A625(595)nm inhibition (%)=A625(595)nm (control) – A625(595)nm(natural substance)/A625(595)nm (control)× 100 where A625(595)nm (control) is the absorbance of bacterial suspension/biofilm itself, and A625(595)nm(natural substance) is the absorbance of the bacterial suspension/biofilm with the added natural substance (NAC, RLs, and UA).
(§4) When the minimum inhibitory concentration could not be determined, the MIC was established as >the highest tested concentration for NAC, RLs, and UA.
On the technique in general: Tetrazolium assays rely on reduction of a dye to a coloured formazan, in cell work by metabolically active cells.

Test [2] deals with S. Infantis S13. Described as above. Type of test: cell-based, Salmonella enterica Infantis. The following applies: for MICMPB80: ≥80% inhibition, 20 h with substance. As to the method: as §1, §2, §3, §4
In test [3] the test system is preformed biofilms of Gram-negative bacteria. The test can be described thus: Inhibition of further growth of biofilm cells, summary over strains. It is filed as cell-based. As to the method: as §2, with “The difference of A625nm was considered as a measure of the ability of cells to grow in the presence of the tested substances.” left out, “nm. […]” for “nm.”
In test [4] the test system is S. Enteritidis ATCC 13076. Description: CLSM analysis, biofilm prevention. It is filed as cell-based, Salmonella enterica Enteritidis. The following applies: 24 h exposure; for Thickness (µm) subCBM80: substance at subinhibitory concentration, mean ± SD. Here is the method: Biofilm prevention and removal analyses were performed using previously determined minimum inhibitory and subinhibitory concentrations for metabolic activity (MICBM80, subCBM80; MICMPB80, subCMPB80) of NAC, RLs, and UA specific for each tested strain. Selected concentrations were used to evaluate the inhibition of biofilm formation (biofilm prevention) and the reduction in previously formed biofilms (biofilm removal) for the same set of microorganisms, with the exception of S. Infantis, which was excluded from the analysis due to its inability to form biofilm in the selected microtiter plate. Biofilm prevention and removal were observed using CLSM with specific staining to distinguish between live and membrane-compromised cells. Images were analyzed to evaluate (i). the total volume of the biomass, (ii). ratios of live and membrane-compromised cells, and (iii). to calculate biofilm volume reduction for individual organisms after the respective treatment types. The total biofilm volume was normalized by the area of the well and expressed as an average biofilm thickness. Complete data are provided in Supplementary Materials (Tables S1–S8).
For both inhibition and reduction of biofilms, overnight cultures from BHI were diluted in TSB + 1% Glc to reach an absorbance of 0.08 to 0.1 at 625 nm. The inoculum (150 µL) was transferred into wells of the 96-well flat-bottomed Ibidiμ-Plate (Ibidi, Gräfelfing, Germany) and mixed with 150 µL of each of the three tested substances in technical quadruplicates, followed by incubation at 37 °C for 24 h. Simultaneously, the prepared bacterial suspensions were inoculated to an additional microtiter plate (200 µL) and allowed to form biofilm overnight (18 h at 37 °C). After the incubation, the content of the well was drained off, and 200 µL of each of the three tested substances was added to the plate, which was then incubated for an additional 20 h. […]
All collected images were statistically evaluated to quantify biovolume utilizing the surface estimation procedure described in Parker et al.. […]

Test [5] has as its system S. Infantis S59. The test can be described thus: MIC for reduction of preformed biofilm (crystal violet staining). It is filed as cell-based, Salmonella enterica Infantis. The following applies: for MICBR80: ≥80% reduction of preformed biofilm (18 h), 20 h with substance. As to the method: as §1, §2, §3, §4
Test [6] relates to S. Infantis S13. The test is described as above. The settings on record: for MICBR80: ≥80% reduction of preformed biofilm (18 h), 20 h with substance. It is filed as cell-based, Salmonella enterica Infantis. Here is the method:
as §1, §2, §3, §4

The mark [7] stands for this setting: preformed biofilm, within tested concentrations.

For `CC(=O)c1c(O)c(C)c(O)c2c1OC1=CC(=O)C(C(C)=O)C(=O)C12C` (single isomer, unassigned; (+)) [UA, (+)-usnic acid], the “maximal achieved inhibition (MICMPB80 not reached)” value in test [1] (within tested concentrations) came out at 26%; in test [2] (within tested concentrations), 17%. Further, the MICMPB80 in test [1] and in test [2] was above 31.3 µg/mL in each case. In addition, in test [3], the “maximum observed inhibition of further growth of biofilm cells” value was “up to 61%”. Further, the “Thickness (µm) subCBM80” value in test [4] is on record as 77.6 ± 39.1 µm. In addition, the “maximal achieved inhibition (MICBR80 not reached), biofilm reduction” value was 21% in test [5] (setting [7]) and 30% in test [6] (setting [7]). The MICBR80 in test [5] and in test [6] was above 31.3 µg/mL in each case.
`CC(=O)N[C@@H](CS)C(=O)O` [NAC, N-Acetyl-L-cysteine]: the MICMPB80 in test [1] and in test [2] was 12,500 µg/mL in each case. Moreover, the “Thickness (µm) MICBM80” value in test [4] (substance at its MICBM80, mean ± SD) is 117 ± 41.6 µm. For the same compound, the “Thickness (µm) subCBM80” value in test [4] is recorded as 137 ± 69.6 µm. Besides, the MICBR80 in test [5] is listed as 100,000 µg/mL; in test [6], 12,500 µg/mL.
